Test results reported in ChEMBL document CHEMBL4364336, “Synthesis and exploration of 2-morpholino-4-phenylthiazol-5-yl acrylamide derivatives for their effects against carbonic anhydrase I, II, IX and XII isoforms as a non-sulfonamide class of inhibitors” (Bioorg Med Chem, 2019).

Legend:
Carbonic anhydrase 2 = Carbonic anhydrase 2 (Homo sapiens, UniProt P00918); experiment: Inhibition of recombinant human carbonic anhydrase2 preincubated for 10 mins followed by CO2 solution addition by phenol red dye based stopped flow CO2 hydration assay
Carbonic anhydrase 1 = Carbonic anhydrase 1 (Homo sapiens, UniProt P00915); experiment: Inhibition of recombinant human carbonic anhydrase1 preincubated for 10 mins followed by CO2 solution addition by phenol red dye based stopped flow CO2 hydration assay
Carbonic anhydrase 9 = Carbonic anhydrase 9 (Homo sapiens, UniProt Q16790); experiment: Inhibition of recombinant human carbonic anhydrase9 preincubated for 10 mins followed by CO2 solution addition by phenol red dye based stopped flow CO2 hydration assay
Carbonic anhydrase 12 = Carbonic anhydrase 12 (Homo sapiens, UniProt O43570); experiment: Inhibition of recombinant human carbonic anhydrase12 preincubated for 10 mins followed by CO2 solution addition by phenol red dye based stopped flow CO2 hydration assay
Chain of Carbonic anhydrase 12 (O43570 whole entry): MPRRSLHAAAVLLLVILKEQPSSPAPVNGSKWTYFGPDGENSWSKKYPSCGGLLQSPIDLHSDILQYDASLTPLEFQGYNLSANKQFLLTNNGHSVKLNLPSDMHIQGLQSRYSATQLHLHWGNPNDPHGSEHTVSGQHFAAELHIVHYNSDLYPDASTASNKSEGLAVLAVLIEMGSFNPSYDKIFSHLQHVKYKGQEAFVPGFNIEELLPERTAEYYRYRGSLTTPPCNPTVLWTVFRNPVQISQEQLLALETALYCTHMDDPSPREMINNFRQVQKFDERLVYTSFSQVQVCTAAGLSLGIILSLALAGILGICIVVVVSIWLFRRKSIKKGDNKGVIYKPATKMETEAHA

Chain of Carbonic anhydrase 1 (P00915 whole entry): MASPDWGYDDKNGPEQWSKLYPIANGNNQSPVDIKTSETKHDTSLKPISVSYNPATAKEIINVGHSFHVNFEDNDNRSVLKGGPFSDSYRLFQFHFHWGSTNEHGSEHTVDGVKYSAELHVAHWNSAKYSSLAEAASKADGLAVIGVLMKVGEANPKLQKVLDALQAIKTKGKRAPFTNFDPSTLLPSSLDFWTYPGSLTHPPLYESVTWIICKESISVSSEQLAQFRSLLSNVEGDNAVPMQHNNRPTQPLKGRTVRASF

| SMILES | Ki (Carbonic anhydrase 2) [µM] | Ki (Carbonic anhydrase 1) [µM] | Ki (Carbonic anhydrase 9) [µM] | Ki (Carbonic anhydrase 12) [µM] |
| --- | --- | --- | --- | --- |
| COc1ccc(NC(=O)/C=C/c2sc(N3CCOCC3)nc2-c2ccccc2)cc1OC | > 100 | > 100 | > 100 | > 100 |
| COc1ccc(NC(=O)/C=C/c2sc(N3CCOCC3)nc2-c2ccc(OC)cc2)cc1 | > 100 | > 100 | > 100 | > 100 |
| COc1ccc(NC(=O)/C=C/c2sc(N3CCOCC3)nc2-c2ccc([N+](=O)[O-])cc2)cc1OC | > 100 | > 100 | > 100 | > 100 |
| COc1ccc(NC(=O)/C=C/c2sc(N3CCOCC3)nc2-c2ccccc2)cc1 | > 100 | > 100 | > 100 | > 100 |
| COc1cc(NC(=O)/C=C/c2sc(N3CCOCC3)nc2-c2ccccc2)cc(OC)c1OC | > 100 | > 100 | > 100 | > 100 |
| Nc1ccccc1NC(=O)/C=C/c1sc(N2CCOCC2)nc1-c1ccc(Cl)cc1 | > 100 | > 100 | > 100 | > 100 |
| O=C(/C=C/c1sc(N2CCOCC2)nc1-c1ccccc1)Nc1ccc(Br)cc1 | > 100 | > 100 | > 100 | > 100 |
| COc1ccc(-c2nc(N3CCOCC3)sc2/C=C/C(=O)Nc2cc(OC)c(OC)c(OC)c2)cc1 | > 100 | > 100 | > 100 | > 100 |
| Nc1ccccc1NC(=O)/C=C/c1sc(N2CCOCC2)nc1-c1ccccc1 | > 100 | > 100 | > 100 | > 100 |
| COc1ccc(-c2nc(N3CCOCC3)sc2/C=C/C(=O)Nc2ccccc2N)cc1 | > 100 | > 100 | > 100 | > 100 |
| COc1ccc(NC(=O)/C=C/c2sc(N3CCOCC3)nc2-c2ccc(Cl)cc2)cc1OC | > 100 | > 100 | > 100 | > 100 |
| COc1cc(NC(=O)/C=C/c2sc(N3CCOCC3)nc2-c2ccc(Cl)cc2)cc(OC)c1OC | > 100 | > 100 | > 100 | > 100 |

The next lines start with the values.

| Ki (Carbonic anhydrase 2) [µM] | Ki (Carbonic anhydrase 1) [µM] | Ki (Carbonic anhydrase 9) [µM] | Ki (Carbonic anhydrase 12) [µM] | SMILES |
| --- | --- | --- | --- | --- |
| > 100 | > 100 | > 100 | > 100 | COc1ccc(-c2nc(N3CCOCC3)sc2/C=C/C(=O)Nc2ccc(Br)cc2)cc1 |
| > 100 | > 100 | > 100 | > 100 | COc1ccc(-c2nc(N3CCOCC3)sc2/C=C/C(=O)Nc2ccc(OC)c(OC)c2)cc1 |
| 9.3 | > 100 | 54.7 | 8.8 | O=C(/C=C/c1sc(N2CCOCC2)nc1-c1ccc([N+](=O)[O-])cc1)Nc1ccc(Br)cc1 |
| 67.8 | > 100 | 96.5 | > 100 | O=C(/C=C/c1sc(N2CCOCC2)nc1-c1ccc(Cl)cc1)Nc1ccc(Br)cc1 |
| 77.7 | > 100 | 96.7 | > 100 | Nc1ccccc1NC(=O)/C=C/c1sc(N2CCOCC2)nc1-c1ccc([N+](=O)[O-])cc1 |
| 50.4 | > 100 | 94.9 | 7.5 | COc1ccc(NC(=O)/C=C/c2sc(N3CCOCC3)nc2-c2ccc(Cl)cc2)cc1 |
| 39.2 | > 100 | 54.7 | 4.6 | COc1ccc(NC(=O)/C=C/c2sc(N3CCOCC3)nc2-c2ccc([N+](=O)[O-])cc2)cc1 |
